The text below walks through data of ChEMBL document CHEMBL1134187, “Synthesis and antitumor evaluation of novel monoindolyl-4-trifluoromethylpyridines and bisindolyl-4-trifluoromethylpyridines” (Bioorg Med Chem Lett, 2001).

In assay [1] the test system is A549. Nature of the assay: Concentration for in vitro cytotoxicity against A-549 human lung tumor cells. The assay is classed as functional, cell-based.
For assay [2], the system named is A549. Nature of the assay: Inhibition of proliferation of A549 cells at concentration of 0.1 uM was determined. The assay is classed as functional. Conditions: Homo sapiens.
Assay [3] concerns A549. Nature of the assay: Inhibition of proliferation of A549 cells at concentration of 100 uM was determined. The assay is classed as functional. Conditions: Homo sapiens.
The subject of assay [4] is A549. Nature of the assay: Inhibition of proliferation of A549 cells at concentration of 10 uM was determined. In kind it is functional. Conditions: Homo sapiens.
Assay [5] concerns A549. Nature of the assay: Inhibition of proliferation of A549 cells at concentration of 1 uM was determined. The assay is classed as functional. As to conditions: Homo sapiens.
In assay [6] the test system is P388. Nature of the assay: Concentration for in vitro cytotoxicity against murine P388 leukemia cells. In kind it is functional, cell-based. As to conditions: Mus musculus.
For assay [7], the system named is P388. Put plainly: Inhibition of proliferation of […] at concentration of 100 uM was determined. In kind it is functional. As to conditions: Mus musculus.
Assay [8] relates to P388. Put plainly: Inhibition of proliferation of […] at concentration of 10 uM was determined. In kind it is functional. As to conditions: Mus musculus.
Assay [9] concerns P388. Put plainly: Inhibition of proliferation of […] at concentration of 1 uM was determined. The assay is classed as functional. As to conditions: Mus musculus.
Assay [10] has as its system P388. Put plainly: Inhibition of proliferation of […] at concentration of 0.1 uM was determined. In kind it is functional. Conditions: Mus musculus.

On to `COc1ccc2c(-c3cc(C(F)(F)F)c(C#N)c(-c4cn(S(=O)(=O)c5ccc(C)cc5)c5cc(OC)ccc45)n3)cn(S(=O)(=O)c3ccc(C)cc3)c2c1`, for which the IC50 in assay [1] and in [6] was more than 100 µM in each case. The figures for the inhibition at 0.1 µM in [2] and in [10] were 33% and 5.1%, respectively. Also, the inhibition at 100 µM in assay [3] was 21.2%; in assay [7], 3.8%. Further, the inhibition at 10 µM in assay [4] amounted to 13.3%; in assay [8], 10.1%. Further, the inhibition at 1 µM in assay [5] is 26.7%; in assay [9] it was 9.1%.
Regarding `Cc1ccc(S(=O)(=O)n2cc(-c3cc(C(F)(F)F)ccn3)c3cc(Br)ccc32)cc1`, the IC50 in assay [1] is 4.1 µM; in assay [6], more than 100 µM. The inhibition at 0.1 µM stood at 38.9% in assay [2] and 9.7% in [10]. Besides, the inhibition at 100 µM came out at 98% in [3] and 32.6% in assay [7]. The inhibition at 10 µM in [4] is 20.6%; in [8], 21.9%. Further, the values for the inhibition at 1 µM in assay [5] and in [9] were 32.8% and 17.8%, respectively.
For the compound `COc1ccc2c(c1)c(-c1cc(C(F)(F)F)cc(-c3cn(S(=O)(=O)c4ccc(C)cc4)c4ccc(OC)cc34)n1)cn2S(=O)(=O)c1ccc(C)cc1`, the half-maximal inhibitory concentration (IC50) in assay [1] and in assay [6] was more than 100 µM throughout. For the same compound, the inhibition at 0.1 µM in assay [2] came out at 16.7%; in assay [10], 9.3%. Moreover, the inhibition at 100 µM in [3] came to 41.7%; in assay [7], 13.8%. Besides, the inhibition at 10 µM came out at 22.2% in assay [4] and 5% in assay [8]. For the same compound, the inhibition at 1 µM in assay [5] was found to be 7.1%; in [9], 7%.
On to `COc1ccc2c(c1)c(-c1cc(C(F)(F)F)ccn1)cn2S(=O)(=O)c1ccc(C)cc1`, for which the IC50 in assay [1] and in assay [6] was more than 100 µM in each case. The compound also returned an inhibition at 0.1 µM in assay [2] of 16.9%. Moreover, the inhibition at 100 µM in [3] amounted to 51.8%; in [7], 15.6%. This compound also gave an inhibition at 10 µM in assay [4] of 14.1%. Also, in assay [5], the inhibition at 1 µM turned out to be 23.2%.
On to `Cc1ccc(S(=O)(=O)n2cc(-c3cc(C(F)(F)F)ccn3)c3cc(OCc4ccccc4)ccc32)cc1`, for which the half-maximal inhibitory concentration (IC50) in assay [1] and in assay [6] was more than 100 µM in each case. Further, the inhibition at 0.1 µM in assay [2] was found to be 16.9%. Further, the inhibition at 100 µM is 35.9% in assay [3] and 2.2% in [7]. For the same compound, in [4], the inhibition at 10 µM came to 9.9%. Besides, testing at 1 µM in assay [5] gave an inhibition of 23.2%.
Turning to `Cc1ccc(S(=O)(=O)n2cc(-c3cc(C(F)(F)F)cc(-c4cn(S(=O)(=O)c5ccc(C)cc5)c5ccccc45)n3)c3ccccc32)cc1`, the figures for the IC50 in [1] and in assay [6] were 23 µM and more than 100 µM, respectively. The inhibition at 0.1 µM in [2] was determined as 37.5%; in assay [10], 15.7%. For the same compound, the inhibition at 100 µM in [3] came to 69.3%; in assay [7], 14.7%. Further, the results for the inhibition at 10 µM in assay [4] and in [8] were 27.6% and 23.5%, respectively. Besides, the inhibition at 1 µM in [5] amounted to 36.7%; in assay [9], 20.9%.
In the case of `COc1ccc2c(-c3cc(C(F)(F)F)cc(-c4cn(S(=O)(=O)c5ccc(C)cc5)c5cc(OC)ccc45)n3)cn(S(=O)(=O)c3ccc(C)cc3)c2c1`, the values for the IC50 in assay [1] and in [6] were 1.7 µM and 4.3 µM, respectively. In assay [2], the inhibition at 0.1 µM was found to be 1.7%. For the same compound, the inhibition at 100 µM turned out to be 97.1% in [3] and 99.9% in assay [7]. For the same compound, the inhibition at 10 µM turned out to be 28.8% in assay [4] and 92.8% in assay [8]. Moreover, in [5], the inhibition at 1 µM came out at 35.5%.
Take `Cc1ccc(S(=O)(=O)n2cc(-c3cc(C(F)(F)F)cc(-c4cn(S(=O)(=O)c5ccc(C)cc5)c5cc(Br)ccc45)n3)c3ccc(Br)cc32)cc1`: the IC50 in assay [1] and in assay [6] was more than 100 µM in each case. In addition, the values for the inhibition at 0.1 µM in assay [2] and in assay [10] were 25.8% and 8.1%, respectively. In addition, the inhibition at 100 µM in [3] is 49.2%; in assay [7] it was 8.9%. The results for the inhibition at 10 µM in assay [4] and in assay [8] were 32% and 15.1%, respectively. In addition, the inhibition at 1 µM in assay [5] came out at 30.7%; in [9] it was 10%.
Take `Cc1ccc(S(=O)(=O)n2cc(-c3cc(C(F)(F)F)c(C#N)c(-c4cn(S(=O)(=O)c5ccc(C)cc5)c5ccc(Br)cc45)n3)c3cc(Br)ccc32)cc1`: the results for the IC50 in assay [1] and in assay [6] were 78 µM and more than 100 µM, respectively. The compound also gave an inhibition at 0.1 µM in [2] of 9.8%. For the same compound, the inhibition at 100 µM was 70.6% in assay [3] and 8.2% in assay [7]. Testing at 10 µM in assay [4] gave an inhibition of 9.6%. The inhibition at 1 µM in [5] turned out to be 17.4%; in [9] it was 3.7%.
Turning to `COc1ccc2c(c1)c(-c1cc(C(F)(F)F)c(C#N)c(-c3cn(S(=O)(=O)c4ccc(C)cc4)c4ccc(OC)cc34)n1)cn2S(=O)(=O)c1ccc(C)cc1`, the IC50 in assay [1] and in [6] was more than 100 µM throughout. Also, the inhibition at 0.1 µM in assay [2] was determined as 25%; in [10] it was 1.7%. In assay [3], this compound had an inhibition at 100 µM of 17.7%. The inhibition at 10 µM in assay [4] came to 25.2%; in [8], 3.5%. This compound yielded an inhibition at 1 µM in assay [5] of 24.4%.
Regarding `Cc1ccc(S(=O)(=O)n2cc(-c3cc(C(F)(F)F)ccn3)c3ccccc32)cc1`, the IC50 in assay [1] is 25 µM; in [6] it was more than 100 µM. This compound also gave an inhibition at 0.1 µM in assay [2] of 25%. Further, the inhibition at 100 µM amounted to 68.4% in assay [3] and 49.9% in assay [7]. For the same compound, 10 µM produced 35% inhibition in assay [4]. The inhibition at 1 µM is 23.8% in assay [5] and 10.5% in [9].
For the compound `Cc1ccc(S(=O)(=O)n2cc(-c3cc(C(F)(F)F)c(C#N)c(-c4cn(S(=O)(=O)c5ccc(C)cc5)c5cc(Br)ccc45)n3)c3ccc(Br)cc32)cc1`, the IC50 in assay [1] and in assay [6] was more than 100 µM each time. The inhibition at 0.1 µM in assay [2] was determined as 23.8%; in assay [10], 3.1%. The values for the inhibition at 100 µM in assay [3] and in assay [7] were 48.1% and 1.3%, respectively. The inhibition at 10 µM in assay [4] was found to be 27.6%; in [8] it was 5.7%. Besides, the inhibition at 1 µM is 18.8% in assay [5] and 1.7% in assay [9].

By IC50 is commonly meant the midpoint of a concentration-inhibition curve. Low readings indicate higher potency, high ones lower potency. As a reminder, the inhibition is the percentage by which the read-out fell short of the control.
